In experiment [1] the test system is KG-1a cells. The experiment in a line: MTT cytotoxicity assay in KG-1a cells. The note with it: for IC50 / IC20: Homo sapiens; for Selectivity index (SI): IC50 for normal cells (PBMCs) / IC50 for cancer cells (KG-1a). It counts as cell-based, human. As to the method: (§1) MTT (3-(4,5-dimethylthiazol-2-yl)-2,5-diphenyltetrazolium bromide) assay was used to investigate the cytotoxicity of the test samples. KG-1a (1.5 × 10^4 cells/well), K562 (1.0 × 10^4 cells/well), PBMCs (1.0 × 10^5 cells/well), A549 (5.0 × 10^3 cells/well), MCF-7 (5.0 × 10^3 cells/well), and HeLa (5.0 × 10^3 cells/well) were seeded into a 96-well plate and incubated overnight at 37 °C with 5% CO2. […] After that, 5 mg/mL of MTT dye solution (Sigma-Aldrich, MA, USA) was added and incubated for 4 h. The produced formazan crystals were dissolved in 200 µL of DMSO (Sigma-Aldrich, MA, USA); then, the optical density (OD) was measured using an ELISA plate reader (Metertech, Taipei, Taiwan) at 578 nm with a reference wavelength of 630 nm. The percentage of surviving cells was calculated from the absorbance values of the test and control wells using the following Equation. 1 [drawing 1]
(§2) where ODsample is a mean absorbance in test well and ODvehicle control is a mean absorbance in VC well. The average percentage of surviving cells at each concentration obtained from triplicate experiments was plotted as a dose-response curve. Inhibitory concentration values at 50% growth (IC50 value) were defined as the lowest concentration of the test sample that inhibited cell growth by 50% compared to the untreated control.
(§3) To calculate IC50 values, a dose-response curve was fitted using non-linear regression analysis, as described in the GraphPad Prism guidelines (https://www.graphpad.com/support/faq/how-to-determine-an-icsub50sub/). The IC50 value was obtained by determining the point at which the curve intersected 50% growth inhibition. Non-linear regression graphs of the dose-response curve for each compound are provided in the supplementary data file (Figs. S1–S8).
where IC50 N is IC50 for normal cells and IC50 C is IC50 for cancer cells which were treated with the same compounds in both cells.

Experiment [2] has as its system cleaved caspase-3 and PARP in KG-1a cells. The experiment in a line: Cleaved caspase-3 and cleaved PARP in KG-1a cells by Western blotting. It counts as cell-based, human. The note with it: IC50 concentrations (curcumin 10 µg/mL, shogaol 3 µg/mL, nocodazole 10 ng/mL), 0–12 h. As to the method: (§4) KG-1a cells (1.5 × 10^5 cells/mL) were treated with compounds or extracts at different incubation times. Then, the cells were harvested and the whole proteins were extracted using a RIPA buffer (25 mM Tris-base, pH 7.6, 0.1% SDS, 1% Triton X-100, 150 mM NaCl, and 1 mM EDTA). The protein concentration was measured using the Folin-Lowry or Bradford assay. The whole protein lysates (30 µg/lane) were then separated through 7.5% SDS-PAGE under reducing conditions and then transferred to PVDF membranes. The membranes were blocked in 5% skim milk in PBS, pH 7.4 at RT for 2 h, then, target proteins were probed with specific primary antibodies (anti-WT1, anti-CD34, anti-GAPDH, anti-cleaved caspase-3, anti-cleaved PARP, anti-phospho-Akt, anti-phospho-c-Jun, anti-phospho-SAPK/JNK, and anti-YAP/TAZ) indicated in Table S10 which diluted at a ratio of 1:1,000 in PBS, pH 7.4 at RT for 2 h. After incubation, the membranes were rinsed 6 times with 0.1% Tween-20 (Sigma-Aldrich, MA, USA) in PBS, pH 7.4 (PBS-T), each time for 5 min. The reaction was followed by HRP-conjugated secondary antibody at 1:20,000 dilution in PBS, pH 7.4 at RT for 2 h, then, the membranes were rinsed 6 times for 5 min each with PBS-T. The proteins were shown using Immobilon Forte Western HRP substrate (Millipore, MA, USA). Finally, the protein band signal was quantified by using a scan densitometer (Bio-Rad Laboratories, CA, USA).
For orientation: A western blot detects proteins with antibodies after separation by electrophoresis.

In experiment [3] the test system is KG-1a cells. Kind of experiment: Cell cycle and apoptosis (sub-G1) assay by flow cytometry in KG-1a cells. It counts as cell-based, human. The conditions noted are these: 48 h. As to the method: After treating KG-1a cells with active compounds at various concentrations for 48 h, the cells were pulsed with 10 µM BrdU (Sigma-Aldrich, MA, USA) for 20 min at 37 °C in an incubator with 5% CO2. Subsequently, the cells were harvested, washed with ice-cold PBS, pH 7.4 three times, and then fixed with 70% ethanol in PBS, pH 7.4 at −30 °C. Following fixation, the cells were washed and resuspended in 2 N HCl/0.5% Triton X-100 for 30 min at room temperature (RT). Then, 0.1 M sodium tetraborate decahydrate was added for 2 min at RT to neutralize the acid. Subsequently, the cells were stained with FITC-anti-BrdU antibody for 30 min at RT. After washing, the cells were resuspended in propidium iodide (PI) (Dojindo, Kumamoto, Japan) in PBS, pH 7.4 at a ratio of 1:1,000. The cell cycle phases were detected using a flow cytometer (CytoFLEX S, Beckman Coulter, CA, USA) and analyzed with the CytExpert program (Beckman Coulter, CA, USA).
The flow cytometry data were analyzed to assess both apoptosis and cell cycle distribution. Apoptosis was evaluated by determining the percentage of cells in the sub-G1 phase using the Nicoletti assay. For cell cycle analysis, populations in the G1, S, and G2/M phases were calculated after excluding the sub-G1 population to avoid interference from apoptotic cells, allowing for a clearer assessment of cell cycle arrest in different phases. Data were presented in separate graphs for the sub-G1 population and cell cycle phase distributions.
In general terms: In flow cytometry, cells or beads pass a laser one at a time.

The subject of experiment [4] is WT1 protein expression in KG-1a cells. Kind of experiment: WT1 protein expression in KG-1a cells by Western blotting. It counts as cell-based, human. The procedure: as §4
Experiment [5] deals with KG-1a cells. The experiment in a line: Cell death analysis by PI staining and flow cytometry in KG-1a cells. It counts as cell-based, human. The note with it: nocodazole 5–120 ng/mL, shogaol 6–9 µg/mL, curcumin various concentrations; time course. As to the method:
Additionally, PI staining was used to investigate the cytotoxicity of the active compounds. KG-1a cells after exposure to the active compounds with various concentration were harvested at different incubation times and washed with ice-cold PBS, pH 7.4 for 2 times. Then, the cells were resuspended with PI in PBS, pH 7.4 at a ratio of 1:10,000. The percentage of dead cells was detected by flow cytometry (CytoFLEX S, Beckman Coulter, CA, USA) and analyzed by CytExpert program (Beckman Coulter, CA, USA).

The next experiment deals with PBMCs. Kind of experiment: MTT cytotoxicity assay in PBMCs. The note with it: Homo sapiens, PBMC. It counts as cell-based, human. As to the method:
PBMCs were isolated from blood samples using the Ficoll-Hypaque technique. Initially, 10–20 mL of blood was collected in a heparin tube at a ratio of 1:500 from a minimum of three healthy volunteers. Subsequently, the blood samples were diluted with Phosphate buffer saline (PBS), pH 7.4, at a ratio of 1:1 to reduce viscosity. Histopaque-1077 (Sigma-Aldrich, MA, USA) was then underlaid the diluted sample and centrifuged at 400×g for 30 min. The resulting PBMCs were collected, washed with PBS, pH 7.4, and prepared for further experiments.
as §1, §2, §3

The subject of a further experiment is RAW264.7 cells. The experiment in a line: Cytotoxicity (IC20, cell viability) in RAW264.7 cells. It counts as cell-based. The conditions noted are these: Mus musculus, RAW264.7, 48 h, read-out: IC20 RAW264.7 (inhibitory concentration at 20% growth). The procedure: MTT (3-(4,5-dimethylthiazol-2-yl)-2,5-diphenyltetrazolium bromide) assay was used to investigate the cytotoxicity of the test samples. […] After that, 5 mg/mL of MTT dye solution (Sigma-Aldrich, MA, USA) was added and incubated for 4 h. The produced formazan crystals were dissolved in 200 μL of DMSO (Sigma-Aldrich, MA, USA); then, the optical density (OD) was measured using an ELISA plate reader ([…], Taiwan) at 578 nm with a reference wavelength of 630 nm. The percentage of surviving cells was calculated from the absorbance values of the test and control wells using the following Equation. 1 [drawing 1] […] Afterward, supernatants were collected, and the levels of TNF-α and NO were measured using the Mouse TNF alpha Uncoated ELISA Kit (InvitrogenTM, ThermoFisher Scientific, MA, USA) and the Total Nitric Oxide Assay Kit (InvitrogenTM, ThermoFisher Scientific, MA, USA), respectively, according to the manufacturer's instructions.

Experiment [6] concerns CD34 protein expression in KG-1a cells. The experiment in a line: CD34 protein expression in KG-1a cells by Western blotting. It counts as cell-based, human. The conditions noted are these: IC20 concentrations, 48 h, normalized to GAPDH. As to the method:
as §4

Experimental findings from paper PMC11869560, “Anticancer and cancer preventive activities of shogaol and curcumin from Zingiberaceae family plants in KG-1a leukemic stem cells” (BMC Complementary Medicine and Therapies, 2025) are described below.

Molecules are shown by their SMILES. Converted amounts (≈) assume the structure as drawn. Like-named read-outs stand apart in the source and are kept apart here.

Regarding `COC(=O)Nc1nc2ccc(C(=O)c3cccs3)cc2[nH]1` [Nocodazole, nocodazole, reference compound], in the experiment with KG-1a cells [1] (KG-1a, as used for Western blotting, read-out: IC50 concentration in KG-1a cells), the IC50 was determined as 0.01 µg/mL (≈ 0.0332 µM). For the same molecule, the IC20 with KG-1a cells [1] (KG-1a, as used in the cell cycle assay, read-out: IC20 concentration in KG-1a cells) stood at 0.006 µg/mL (≈ 0.0199 µM). Besides, the “time to activation of cleaved caspase-3 and PARP” value in experiment [2] was “failed to induce the activation of cleaved caspase-3 and PARP even after 12 h of incubation”. Moreover, the “effect on sub-G1 population compared to VC” value with KG-1a cells [3] (IC20 concentration (nocodazole 6 ng/mL, curcumin 3 µg/mL, shogaol 0.12 µg/mL)) is “significantly increased the sub-G1 population”. For the same molecule, the “increase of proportion of cells in G2/M phase” value with KG-1a cells [3] (IC20 concentration, sub-G1 excluded) stood at 23.48 ± 1.35%. Also, the “effect on WT1 expression” value in experiment [4] (IC50 concentration, up to 12 h) was “failed to reduce WT1 expression even after 12 h of incubation”. The “induction of cell death (PI staining)” value in the experiment on KG-1a cells [5] is “significant induction of cell death after 24 h of incubation”.
On to `COc1cc(/C=C/C(O)=C/C(=O)/C=C/c2ccc(O)cc2)ccc1O` [Demethoxycurcumin, demethoxycurcumin], for which the IC50 turned out to be 11.3 ± 0.85 µg/mL (≈ 33.3 µM) in the experiment on KG-1a cells [1] (KG-1a, active compounds and drugs, MTT, 48 h, read-out: IC50 KG-1a); 10.3 µg/mL (≈ 30.5 µM) in the experiment on KG-1a cells [1] (Table S7, KG-1a, first replicate, read-out: IC50 value R1); 11.6 µg/mL (≈ 34.4 µM) in the experiment on KG-1a cells [1] (Table S7, KG-1a, second replicate, read-out: IC50 value R2); 11.9 µg/mL (≈ 35.1 µM) in the experiment with KG-1a cells [1] (Table S7, KG-1a, third replicate, read-out: IC50 value R3); 14.2 µg/mL (≈ 41.8 µM) with PBMCs (Table S8, PBMCs, first replicate, read-out: IC50 value R1); 13.6 µg/mL (≈ 40.2 µM) in the experiment on PBMCs (Table S8, PBMCs, second replicate, read-out: IC50 value R2). For the same molecule, the IC50 in the experiment with PBMCs (Table S8, PBMCs, third replicate, read-out: IC50 value R3) came to 13.9 µg/mL (≈ 41 µM); in the experiment with PBMCs (active compounds and drugs, MTT, 48 h, read-out: IC50 PBMCs) it was 13.9 ± 0.28 µg/mL (≈ 41 µM). Besides, the IC20 came out at 3.69 ± 0.53 µg/mL (≈ 10.9 µM) in the experiment on KG-1a cells [1] (KG-1a, incubation for 48 h, read-out: IC20 KG-1a (inhibitory concentration at 20% growth)); 7.95 ± 0.26 µg/mL (≈ 23.5 µM) with PBMCs (incubation for 48 h, read-out: IC20 PBMCs (inhibitory concentration at 20% growth)); 5.94 ± 2.02 µg/mL (≈ 17.6 µM) with RAW264.7 cells. Further, the “Selectivity index (SI)” value in the experiment with KG-1a cells [1] (48 h) is 1.23; with KG-1a cells [1] (48 h, listed as demethoxycurcumin), “greater than 1”. Also, the “decrease of WT1 protein level compared to VC” value in experiment [4] (IC20 concentrations, 48 h, normalized to GAPDH) came to 33.37 ± 3.87%. Besides, the “decrease of CD34 protein level compared to VC” value in experiment [6] was found to be 32.79 ± 1.56%.
